These results are taken from US10577363B2, “Substituted piperidine compounds” (EPIZYME, INC., priority 2014, dated 2020).

For this experiment, the target named is SMYD3 (Homo sapiens (Human), UniProt Q9H7B4). Briefly: SMYD3 biochemical assay (SPA, 3H-SAM methylation of MEKK2 protein substrate). The settings on record: read-out: SMYD3 Biochem IC50 (μM)*. The gist of the method:
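Enzyme: untagged full-length human SMYD3 from E. coli; substrate GST-tagged MEKK2 from insect cells. Buffer 25 mM Tris-Cl pH 8.0, 1 mM TCEP, 0.005% BSG/Tween 20. 30 min compound–enzyme preincubation at RT; 3H-SAM/MEKK2 start; stop with cold SAM (100 uM final); SPA readout in cpm.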

As usually defined, the IC50 is the midpoint of a concentration-inhibition curve.

Turning to `CC[C@H]1CN(C(=O)C2CCC(N)CC2)CC[C@@H]1NC(=O)c1cc(C2CC2)on1` (stereo partly drawn) [compound 93, N-((3S,4S)-1-(4-aminocyclohexane-1-carbonyl)-3-ethylpiperidin-4-yl)-5-cyclopropylisoxazole-3-carboxamide], the IC50 came out at 1.61 µM.
`CC[C@H]1CC(NC(=O)c2cc(C3CC3)on2)CCN1C(=O)[C@H]1CC[C@H](N)CC1` (stereo partly drawn) [compound 94, N-((2S)-1-((1r,4S)-4-aminocyclohexane-1-carbonyl)-2-ethylpiperidin-4-yl)-5-cyclopropylisoxazole-3-carboxamide]: the IC50 is 2.38 µM.
Take `C[C@@H]1CC(NC(=O)c2cc(C3CC3)on2)CCN1C(=O)[C@@H]1CC[C@@H](N)C1` (stereo partly drawn) [compound 95, N-((2R)-1-((1R,3R)-3-aminocyclopentane-1-carbonyl)-2-methylpiperidin-4-yl)-5-cyclopropylisoxazole-3-carboxamide]: the IC50 is 0.532 µM.
In the case of `C[C@@H]1CC(NC(=O)c2cc(C3CC3)on2)CCN1C(=O)[C@@H]1CC[C@H](N)C1` (stereo partly drawn) [compound 96, N-((2R)-1-((1R,3S)-3-aminocyclopentane-1-carbonyl)-2-methylpiperidin-4-yl)-5-cyclopropylisoxazole-3-carboxamide], the IC50 was 1.9 µM.
As to `C[C@@H]1CC(NC(=O)c2cc(C3CC3)on2)CCN1C(=O)[C@H]1C[C@H](N)C1` (stereo partly drawn) [compound 97, N-((2R)-1-((1r,3R)-3-aminocyclobutane-1-carbonyl)-2-methylpiperidin-4-yl)-5-cyclopropylisoxazole-3-carboxamide], the IC50 worked out at 0.779 µM.
Consider `CCCC1CC(NC(=O)c2cc(C3CC3)on2)CCN1C(=O)[C@H]1CC[C@H](N)CC1` (stereo partly shown) [compound 98, N-(1-((1r,4r)-4-aminocyclohexane-1-carbonyl)-2-propylpiperidin-4-yl)-5-cyclopropylisoxazole-3-carboxamide], for which the IC50 is 0.655 µM.
Next, `N[C@H]1CC[C@H](C(=O)N2CCC(NC(=O)c3cc(C4CC4)on3)CC23CCC3)CC1` (stereo partly shown) [compound 100, N-(5-((1r,4r)-4-aminocyclohexane-1-carbonyl)-5-azaspiro[3.5]nonan-8-yl)-5-cyclopropylisoxazole-3-carboxamide]: 2.2 µM.
On to `N[C@H]1CC[C@H](C(=O)N2[C@@H]3CC[C@H]2C[C@H](NC(=O)c2cc(C4CC4)on2)C3)CC1` [compound 101, N-((1R,3S,5S)-8-((1r,4R)-4-aminocyclohexane-1-carbonyl)-8-azabicyclo[3.2.1]octan-3-yl)-5-cyclopropylisoxazole-3-carboxamide], for which the IC50 is greater than 10 µM.
As to `C[C@H]1CC(NC(=O)c2cc(C3CC3)on2)CCN1C(=O)CC(C)(C)CN` (stereo partly drawn) [compound 103, N-((2S)-1-(4-amino-3,3-dimethylbutanoyl)-2-methylpiperidin-4-yl)-5-cyclopropylisoxazole-3-carboxamide], the IC50 was 1.45 µM.
Turning to `C[C@@H]1CC(NC(=O)c2cc(C3CC3)on2)CCN1C(=O)CC(C)(C)CN` (stereo partly drawn) [compound 104, N-((2R)-1-(4-amino-3,3-dimethylbutanoyl)-2-methylpiperidin-4-yl)-5-cyclopropylisoxazole-3-carboxamide], the concentration for half-maximal inhibition (IC50) was 0.566 µM.
Turning to `C[C@H]1CC(NC(=O)c2cc(C3CC3)on2)CCN1C(=O)[C@H]1CC[C@H](N(C)C)CC1` (stereo partly drawn) [compound 105, 5-cyclopropyl-N-((2S)-1-((1r,4S)-4-(dimethylamino)cyclohexane-1-carbonyl)-2-methylpiperidin-4-yl)isoxazole-3-carboxamide], the half-inhibitory concentration (IC50) came to 20 µM.
Next, `C[C@H]1CC(NC(=O)c2cc(C3CC3)on2)CCN1C(=O)[C@H]1CCC[C@H](N)C1` (stereo partly drawn) [compound 106, N-((2S)-1-((1S,3S)-3-aminocyclohexane-1-carbonyl)-2-methylpiperidin-4-yl)-5-cyclopropylisoxazole-3-carboxamide]: 3.52 µM.
The same measure for `C[C@@H]1CC(NC(=O)c2cc(C3CC3)on2)CCN1C(=O)C1CCCNC1` (stereo partly drawn) [compound 107, 5-cyclopropyl-N-((2R)-2-methyl-1-(piperidine-3-carbonyl)piperidin-4-yl)isoxazole-3-carboxamide]: 2.52 µM; for `N[C@H]1CC[C@H](C(=O)N2CCC(NC(=O)c3cc(C4CC4)on3)CC2Cc2ccccc2)CC1` (stereo partly shown) [compound 108, N-(1-((1r,4r)-4-aminocyclohexane-1-carbonyl)-2-benzylpiperidin-4-yl)-5-cyclopropylisoxazole-3-carboxamide]: 1.42 µM.
Regarding `NC[C@H](Cc1ccc(O)c(C(F)(F)F)c1)C(=O)N1CCC(NC(=O)c2cc(C3CC3)on2)CC1` [compound 111, (S)-N-(1-(3-amino-2-(4-hydroxy-3-(trifluoromethyl)benzyl)propanoyl)piperidin-4-yl)-5-cyclopropylisoxazole-3-carboxamide], the 50% inhibitory concentration (IC50) turned out to be 2.47 µM.
As for `CC(C)c1cc(C[C@H](CN)C(=O)N2CCC(NC(=O)c3cc(C4CC4)on3)CC2)ccc1O` [compound 112, (R)-N-(1-(3-amino-2-(4-hydroxy-3-isopropylbenzyl)propanoyl)piperidin-4-yl)-5-cyclopropylisoxazole-3-carboxamide], the IC50 was 1.09 µM.
For the compound `C[C@@H]1CC(NC(=O)c2cc(C3CC3)on2)CCN1C[C@H]1CC[C@H](N)CC1` (stereo partly drawn) [compound 113, N-((2R)-1-(((1r,4R)-4-aminocyclohexyl)methyl)-2-methylpiperidin-4-yl)-5-cyclopropylisoxazole-3-carboxamide], the IC50 is 4.59 µM.
For the compound `CC1(C)CC(NC(=O)c2cc(C3CC3)on2)CCN1C(=O)[C@H]1CC[C@H](N)CC1` (stereo partly shown) [compound 114, N-(1-((1r,4r)-4-aminocyclohexane-1-carbonyl)-2,2-dimethylpiperidin-4-yl)-5-cyclopropylisoxazole-3-carboxamide], the IC50 stood at 1.31 µM.
For `C[C@H]1CC(NC(=O)c2cc(C3CC3)on2)CCN1C(=O)CC1(C)CCNCC1` (stereo partly drawn) [compound 115, 5-cyclopropyl-N-((2S)-2-methyl-1-(2-(4-methylpiperidin-4-yl)acetyl)piperidin-4-yl)isoxazole-3-carboxamide], the IC50 came to 0.472 µM.
As to `C[C@@H]1CC(NC(=O)c2cc(C3CC3)on2)CCN1C(=O)CC1(C)CCNCC1` (stereo partly drawn) [compound 116, 5-cyclopropyl-N-((2R)-2-methyl-1-(2-(4-methylpiperidin-4-yl)acetyl)piperidin-4-yl)isoxazole-3-carboxamide], the IC50 was determined as 2.91 µM.
The same measure for `C[C@H]1CC(NC(=O)c2cc(C3CC3)on2)CCN1C(=O)[C@H]1CCC[C@@H](N)C1` (stereo partly drawn) [compound 117, N-((2S)-1-((1S,3R)-3-aminocyclohexane-1-carbonyl)-2-methylpiperidin-4-yl)-5-cyclopropylisoxazole-3-carboxamide]: 5.6 µM; for `CCOC(=O)C1CN(C(=O)CC2CCNCC2)CCC1NC(=O)c1cc(C2CC2)on1` (stereo not shown) [compound 119, ethyl 4-(5-cyclopropylisoxazole-3-carboxamido)-1-(2-(piperidin-4-yl)acetyl)piperidine-3-carboxylate]: 2.99 µM; for `NC[C@@H](Cc1ccc(O)c(C(F)(F)F)c1)C(=O)N1CCC(NC(=O)c2cc(C3CC3)on2)CC1` [compound 120, (R)-N-(1-(3-amino-2-(4-hydroxy-3-(trifluoromethyl)benzyl)propanoyl)piperidin-4-yl)-5-cyclopropylisoxazole-3-carboxamide]: 0.0816 µM.
As to `C[C@@H]1CC(NC(=O)c2cc(C3CC3)on2)CCN1C(=O)N1CCC(N)CC1` (stereo partly drawn) [compound 122, N-((2R)-1-(4-aminopiperidine-1-carbonyl)-2-methylpiperidin-4-yl)-5-cyclopropylisoxazole-3-carboxamide], the IC50 is 0.851 µM.
Take `N[C@H]1CC[C@H](C(=O)N2CC3CC2CC3NC(=O)c2cc(C3CC3)on2)CC1` (stereo partly shown) [compound 123, N-(2-((1r,4r)-4-aminocyclohexane-1-carbonyl)-2-azabicyclo[2.2.1]heptan-5-yl)-5-cyclopropylisoxazole-3-carboxamide]: the IC50 amounted to 1.17 µM.
In the case of `O=C(NC1CC2CCCC(C1)N2C(=O)CC1CCNCC1)c1cc(C2CC2)on1` (stereo not shown) [compound 125, 5-cyclopropyl-N-(9-(2-(piperidin-4-yl)acetyl)-9-azabicyclo[3.3.1]nonan-3-yl)isoxazole-3-carboxamide], the IC50 was determined as 7.76 µM.
For `O=C(N[C@@H]1C[C@H]2CC[C@@H](C1)N2C(=O)CC1CCNCC1)c1cc(C2CC2)on1` [compound 126, 5-cyclopropyl-N-((1R,3s,5S)-8-(2-(piperidin-4-yl)acetyl)-8-azabicyclo[3.2.1]octan-3-yl)isoxazole-3-carboxamide], the 50% inhibitory concentration (IC50) stood at 9.86 µM.
`O=C(N[C@H]1C[C@H]2CC[C@@H](C1)N2C(=O)CC1CCNCC1)c1cc(C2CC2)on1` [compound 127, 5-cyclopropyl-N-((1R,3r,5S)-8-(2-(piperidin-4-yl)acetyl)-8-azabicyclo[3.2.1]octan-3-yl)isoxazole-3-carboxamide]: the half-maximal inhibitory concentration (IC50) was found to be 1.28 µM.
As to `C[C@H]1CC(NC(=O)c2cc(C3CC3)on2)CCN1C(=O)CC1CC2CCC(C1)N2` (stereo partly drawn) [compound 128, N-((2S)-1-(2-(8-azabicyclo[3.2.1]octan-3-yl)acetyl)-2-methylpiperidin-4-yl)-5-cyclopropylisoxazole-3-carboxamide], the concentration for half-maximal inhibition (IC50) stood at 0.844 µM.
On to `C[C@@H]1CC(NC(=O)c2cc(C3CC3)on2)CCN1C(=O)CC1CC2CCC(C1)N2` (stereo partly drawn) [compound 129, N-((2R)-1-(2-(8-azabicyclo[3.2.1]octan-3-yl)acetyl)-2-methylpiperidin-4-yl)-5-cyclopropylisoxazole-3-carboxamide], for which the IC50 was found to be 0.595 µM.
With `C[C@H]1CC(NC(=O)c2cc(C3CC3)on2)CCN1C(=O)C1CC2(CC(N)C2)C1` (stereo partly drawn) [compound 130, N-((2S)-1-(6-aminospiro[3.3]heptane-2-carbonyl)-2-methylpiperidin-4-yl)-5-cyclopropylisoxazole-3-carboxamide], the IC50 is 1.3 µM.
